Where two headings read alike, the source gives them in different places.
Experiments:
[1] = tested on: cancer-associated phosphoprotein; settings: for induction of the cancer-associated phosphoprotein in the plasma: rat plasma, result in words
[2] = tested on: cancer-associated phosphoprotein; test: ELISA assay of purified 60K plasma protein fraction from rats exposed to test compound; format: in vivo, rat (Sprague-Dawley strain)
Protocol: This example illustrates a process of the present invention in which the assay for the cancer-associated phosphoprotein is effected by means of an ELISA test.
Samples of the purified 60K protein fraction from the Sepharose CL-6B column used in Example 1 above were subjected to an ELISA assay. […] Also subjected to the same ELISA assay were purified protein fractions from the control rats and from a rat suffering from a hepatoma 7777 tumor.
The ELISA assay was conducted in the following manner. A sample of the cancer-associated phosphoprotein prepared in the manner described in Example 1 of the aforementioned parent application Ser. No. 554,439 was bound to a well in a plastic tray, and the well thereafter washed thoroughly. A polyclonal rabbit antibody serum prepared as described in Example 2 of the aforementioned parent application Ser. No. 554,439 was then mixed with the protein sample to be assayed and the resultant mixture incubated at 37° C. for 30 minutes. The mixture was then added to the well containing the cancer-associated phosphoprotein, and the tray incubated for one hour at 37° C., then washed thoroughly. Following this washing, there was added to the well a goat anti-rabbit IgG antibody serum conjugated to horseradish peroxidase enzyme, and the tray was incubated for one hour at 37° C. then washed thoroughly. The substrate for the horseradish peroxidase enzyme, namely 2,2-azino-di(3-ethylbenzthiazoline sulfonic acid) was added to the well and the tray incubated to 15 minutes at room temperature. The color development was then stopped by addition of a 2 mM solution of sodium azide and the intensity of the color in the wells determined using a spectrophotometer at […].
To determine the maximum possible optical density, a control test was run in which the test sample was replaced with a buffer containing no cancer-associated phosphoprotein; this optical density represents the maximum possible reaction of uninhibited antibody binding to the bound cancer-associated phosphoprotein. […] The optical density of a well containing as a control sample an equivalent fraction of normal rat plasma free of cancer-associated phosphoprotein is designated 0% inhibition; the optical density of this control sample should be close to that of the sample using the buffer solution The samples tested for the presence of the cancer-associated phosphoprotein are designated positive when the optical density exceeds that of the control value by two standard deviations. The concentration of cancer-associated phosphoprotein is directly related to the percentage inhibition and can be compared to that of the standard solution of the cancer-associated phosphoprotein.

rat = settings: cited from earlier work
transformed cells = settings: some types of transformed cells; cited from earlier work
[3] = tested on: cancer-associated phosphoprotein; format: in vivo, rat; settings: acute or chronic treatment of rats
Text: Further experiments indicate that release of the cancer-associated phosphoprotein into the plasma was not induced upon induction of liver regeneration in the rat by partial hepatectomy, nor by acute or chronic treatment of the rats with the non-carcinogenic tumor promoter phenobarbital.

[4] = 160 micromoles/kg, intraperitoneal, plasma ~21 days after exposure, control subtracted
[5] = 600 micromoles/kg, intraperitoneal, plasma ~21 days after exposure, control subtracted
[6] = 1 millimole/kg, intraperitoneal, plasma ~21 days after exposure, control subtracted
[7] = ELISA inhibition, plasma fraction of treated rat, standard phosphoprotein solution = 100%, normal rat plasma fraction = 0%
[8] = 200 micromoles/kg, intraperitoneal, plasma ~21 days after exposure, control subtracted
[9] = 210 micromoles/kg, intraperitoneal, plasma ~21 days after exposure, control subtracted

Compound: COc1cc2c(c3oc(=O)c4c(c13)CCOC4=O)[C@@H]1CCO[C@@H]1O2 [Aflatoxin G2]
- RNA-releasing Activity ([1]; rat, in vivo, ip): 3.80

Compound: Cc1ccc2cc3c(ccc4ccccc43)c3c2c1CC3 [3-Methylcholanthrene]
- RNA-releasing Activity [1, 4]: 5.62 percent nuclear counts per min

Compound: CN(N=O)C(N)=O [N--Methyl-N--nitrosourea]
- RNA-releasing Activity ([1]; 440 micromoles/kg, intraperitoneal, plasma ~21 days after exposure, control subtracted): 4.69 percent nuclear counts per min

Compound: ClC(Cl)(Cl)Cl [Carbon tetrachloride, carbon tetrachloride]
- Percentage Inhibition ([2]; ELISA inhibition, plasma fraction of treated rat, standard phosphoprotein solution = 100%, normal rat plasma fraction = 0%, listed as Carbon tetrachloride-1): 1%
- Percentage Inhibition ([2]; ELISA inhibition, plasma fraction of treated rat, standard phosphoprotein solution = 100%, normal rat plasma fraction = 0%, listed as Carbon tetrachloride-2): 10%

Compound: CCN(N=O)C(N)=O [N--Ethyl-N--nitrosourea]
- RNA-releasing Activity [1, 5]: 4.50 percent nuclear counts per min

Compound: c1ccc2ccccc2c1 [Naphthalene]
- RNA-releasing Activity [1, 6]: 0.12 percent nuclear counts per min
- Percentage Inhibition [2, 7]: 18%

Compound: O=C(O)C(F)(F)C(F)(F)C(F)(F)C(F)(F)C(F)(F)C(F)(F)C(F)(F)C(F)(F)C(F)(F)F [Nonadecafluorodecanoic acid]
- toxicity in the rat (rat): very potent toxins in the rat
- RNA-releasing Activity ([1]; 50 micromoles/kg, intraperitoneal, plasma ~21 days after exposure, control subtracted): 0.00 percent nuclear counts per min
- induction of the cancer-associated phosphoprotein in the plasma [1]: do not induce significant quantities of the cancer-associated phosphoprotein

Compound: COc1cc2c(c3oc(=O)c4c(c13)CCC4=O)[C@@H]1C=CO[C@@H]1O2 [Aflatoxin B1]
- RNA-releasing Activity ([1]; rat, in vivo): 4.37

Compound: C=CCc1ccc2c(c1)OCO2 [Safrole]
- RNA-releasing Activity [1, 5]: 5.90 percent nuclear counts per min
- Percentage Inhibition [2, 7]: 80%

Compound: CC(=O)Nc1ccc2c(c1)Cc1ccccc1-2 [2-Acetylaminofluorene]
- RNA-releasing Activity [1, 8]: 5.11 percent nuclear counts per min
- Percentage Inhibition [2, 7]: 87%

Compound: c1ccc2c(c1)c1cccc3ccc4cccc2c4c31 [Benzo[e]pyrene]
- RNA-releasing Activity [1, 9]: 3.37 percent nuclear counts per min

Compound: c1cc2ccc3cccc4ccc(c1)c2c34 [Pyrene]
- RNA-releasing Activity [1, 4]: 0.05 percent nuclear counts per min

Compound: CN(C)N=O [N--Nitroso-N,N--dimethylamine]
- RNA-releasing Activity ([1]; 135 micromoles/kg, intraperitoneal, plasma ~21 days after exposure, control subtracted): 3.40 percent nuclear counts per min

Compound: Cc1c2ccccc2c(C)c2c1ccc1ccccc12 [7,12-Dimethylbenz[a]anthracene]
- RNA-releasing Activity [1, 4]: 6.42 percent nuclear counts per min

Compound: O=[N+]([O-])c1ccc2ccc3cccc4ccc1c2c34 [1-Nitropyrene]
- RNA-releasing Activity ([1]; 105 micromoles/kg, intraperitoneal, plasma ~21 days after exposure, control subtracted): 5.30 percent nuclear counts per min
- Percentage Inhibition [2, 7]: 74%

Compound: c1ccc2c(c1)cc1ccc3cccc4ccc2c1c34 [Benzo[a]pyrene]
- RNA-releasing Activity [1, 9]: 7.73 percent nuclear counts per min

Compound: c1ccc2nc3ccccc3cc2c1 [Acridine]
- RNA-releasing Activity ([1]; 15 micromoles/kg, intraperitoneal, plasma ~21 days after exposure, control subtracted): 0.00 percent nuclear counts per min
- Percentage Inhibition [2, 7]: 2%

Compound: CCCCN(CCCC)N=O [N--Nitroso-N,N--dibutylamine]
- RNA-releasing Activity ([1]; 760 micromoles/kg, intraperitoneal, plasma ~21 days after exposure, control subtracted): 5.44 percent nuclear counts per min
- Percentage Inhibition [2, 7]: 75%

Compound: Cn1c(=O)c2c(ncn2C)n(C)c1=O [Caffeine]
- RNA-releasing Activity ([1]; rat, in vivo, ip): 0.07
- Percentage Inhibition ([2]; rat, in vivo): 14

Compound: CN(C)C=O [Dimethylformamide]
- RNA-releasing Activity [1, 8]: 1.30 percent nuclear counts per min
- induction of the cancer-associated phosphoprotein in the plasma [1]: induced significant quantities
- ability to induce differentiation of transformed cells (transformed cells): reversably induce the differentiation of some types of transformed cells

Compound: c1ccc2cc3ccccc3cc2c1 [Anthracene]
- RNA-releasing Activity [1, 4]: 0.17 percent nuclear counts per min

Compound: CCOC(N)=O [Ethyl carbamate (urethane), Ethyl carbamate]
- RNA-releasing Activity ([1]; 11.2 millimoles/kg, intraperitoneal, plasma ~21 days after exposure, control subtracted): 3.80 percent nuclear counts per min

Compound: Clc1cc2c(cc1Cl)Oc1cc(Cl)c(Cl)cc1O2 [2,3,7,8-Tetrachlorodibenzo-p-dioxine]
- toxicity in the rat (rat): very potent toxins in the rat
- RNA-releasing Activity ([1]; 0.125 micromoles/kg, intraperitoneal, plasma ~21 days after exposure, control subtracted): 0.00 percent nuclear counts per min
- induction of the cancer-associated phosphoprotein in the plasma [1]: do not induce significant quantities of the cancer-associated phosphoprotein

Compound: CCC1(c2ccccc2)C(=O)NC(=O)NC1=O [Phenobarbital]
- RNA-releasing Activity ([1]; 80 micromoles/kg, intraperitoneal, plasma ~21 days after exposure, control subtracted): 0.08 percent nuclear counts per min
- release of the cancer-associated phosphoprotein into the plasma [3]: not induced

Compound: CCN(CC)N=O [N--Nitroso-N,N--diethylamine]
- RNA-releasing Activity [1, 6]: 4.21 percent nuclear counts per min

Compound: Nc1ccc2ccccc2c1 [2-Naphthylamine]
- RNA-releasing Activity ([1]; 500 micromoles/kg, intraperitoneal, plasma ~21 days after exposure, control subtracted): 3.29 percent nuclear counts per min

Compound: c1ccc2c(c1)Cc1ccccc1-2 [Fluorene]
- RNA-releasing Activity [1, 4]: 0.14 percent nuclear counts per min

Compound: Cc1c(F)ccc2ccc3cc4ccccc4c(C)c3c12 [2-Fluoro-1,12-dimethylbenz[a]anthracene]
- RNA-releasing Activity [1, 4]: 0.10 percent nuclear counts per min

Compound: c1ccc2cc3c(ccc4ccccc43)cc2c1 [Benz[a]anthracene]
- RNA-releasing Activity [1, 4]: 4.92 percent nuclear counts per min

Compound: Cc1cc2nc3c(=O)[nH]c(=O)nc-3n(C[C@H](O)[C@H](O)[C@H](O)CO)c2cc1C [Riboflavin]
- RNA-releasing Activity ([1]; 265 micromoles/kg, intraperitoneal, plasma ~21 days after exposure, control subtracted): 0.01 percent nuclear counts per min
- Percentage Inhibition [2, 7]: 11%

Compound: CNNC [1,2-dimethylhydrazine]
- RNA-releasing Activity ([1]; 560 micromoles/kg, intraperitoneal, plasma ~21 days after exposure, control subtracted): 5.71 percent nuclear counts per min
- Percentage Inhibition [2, 7]: 79%

Source: patent publication US4871661A, “Process for testing the carcinogenicity of a material or the presence of cancer-inducing factors in an environment” (priority 1985, dated 1989)
